Reference: ChEMBL document CHEMBL4130363, “Synthesis and pharmacological evaluation of benzamide derivatives as potent and selective sigma-1 protein ligands” (Eur J Med Chem, 2017)

Assays:
[1] = biological target: Glutamate [NMDA] receptor (Homo sapiens) (UniProt Q05586+Q12879+Q13224+O15399+O60391+Q14957+Q8TCU5); experiment: Antagonist activity at recombinant human NMDA receptor assessed as inhibition of agonist-induced cAMP levels at 10 uM; type: protein-complex assay
[2] = biological target: T1, Neuropeptide Y receptor type 1 (Homo sapiens) (UniProt P25929); experiment: Antagonist activity at recombinant human NPY1R assessed as inhibition of agonist-induced cAMP levels at 10 uM by HTRF assay; type: functional
T1 sequence (whole entry): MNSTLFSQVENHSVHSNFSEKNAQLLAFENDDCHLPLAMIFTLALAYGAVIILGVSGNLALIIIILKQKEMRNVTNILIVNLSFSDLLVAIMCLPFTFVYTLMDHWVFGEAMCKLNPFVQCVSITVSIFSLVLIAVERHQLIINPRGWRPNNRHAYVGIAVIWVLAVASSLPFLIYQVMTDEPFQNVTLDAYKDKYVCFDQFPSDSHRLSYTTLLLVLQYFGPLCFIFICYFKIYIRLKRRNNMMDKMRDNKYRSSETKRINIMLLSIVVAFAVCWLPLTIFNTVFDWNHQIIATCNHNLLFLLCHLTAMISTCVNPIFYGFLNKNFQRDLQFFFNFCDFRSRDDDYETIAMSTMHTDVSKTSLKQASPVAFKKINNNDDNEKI

[3] = biological target: Beta-1 adrenergic receptor (Homo sapiens) (UniProt P08588); experiment: Agonist activity at recombinant human beta-1 adrenergic receptor assessed as induction of cAMP levels at 10 uM by HTRF assay relative to agonist; type: functional
Beta-1 adrenergic receptor (Homo sapiens), sequence (P08588 whole entry, looked up): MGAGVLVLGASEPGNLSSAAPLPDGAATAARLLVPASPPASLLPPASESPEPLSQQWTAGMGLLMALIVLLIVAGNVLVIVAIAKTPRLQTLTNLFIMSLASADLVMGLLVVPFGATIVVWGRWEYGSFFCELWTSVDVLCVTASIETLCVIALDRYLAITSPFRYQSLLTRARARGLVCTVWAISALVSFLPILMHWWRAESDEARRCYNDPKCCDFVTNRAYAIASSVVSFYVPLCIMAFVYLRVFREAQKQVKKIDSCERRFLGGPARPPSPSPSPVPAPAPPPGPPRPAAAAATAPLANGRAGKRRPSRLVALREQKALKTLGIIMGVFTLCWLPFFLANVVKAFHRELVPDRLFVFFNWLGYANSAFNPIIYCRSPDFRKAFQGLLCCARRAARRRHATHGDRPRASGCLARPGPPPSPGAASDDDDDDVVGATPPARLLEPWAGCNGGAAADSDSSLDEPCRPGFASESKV

[4] = biological target: Delta-type opioid receptor (Homo sapiens) (UniProt P41143); experiment: Antagonist activity at human delta-type opioid receptor assessed as inhibition of agonist-induced effect at 10 uM by GTPgamma[35S] binding-based assay; type: functional
Delta-type opioid receptor (Homo sapiens), sequence (P41143 whole entry): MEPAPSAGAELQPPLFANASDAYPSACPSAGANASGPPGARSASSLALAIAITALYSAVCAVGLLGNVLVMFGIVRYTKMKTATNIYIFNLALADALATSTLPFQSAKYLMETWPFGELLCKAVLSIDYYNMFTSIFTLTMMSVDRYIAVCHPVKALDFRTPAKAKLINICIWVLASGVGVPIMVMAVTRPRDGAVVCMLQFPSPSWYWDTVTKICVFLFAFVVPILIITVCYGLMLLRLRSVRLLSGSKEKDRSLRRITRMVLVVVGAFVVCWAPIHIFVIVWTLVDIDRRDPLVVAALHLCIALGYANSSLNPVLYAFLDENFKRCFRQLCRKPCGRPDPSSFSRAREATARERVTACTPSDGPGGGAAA

[5] = biological target: T2, Endothelin-1 receptor (Homo sapiens) (UniProt P25101); experiment: Agonist activity at recombinant human ETA receptor at 10 uM by aequorin reporter based assay relative to agonist; type: functional
T2 sequence (whole entry): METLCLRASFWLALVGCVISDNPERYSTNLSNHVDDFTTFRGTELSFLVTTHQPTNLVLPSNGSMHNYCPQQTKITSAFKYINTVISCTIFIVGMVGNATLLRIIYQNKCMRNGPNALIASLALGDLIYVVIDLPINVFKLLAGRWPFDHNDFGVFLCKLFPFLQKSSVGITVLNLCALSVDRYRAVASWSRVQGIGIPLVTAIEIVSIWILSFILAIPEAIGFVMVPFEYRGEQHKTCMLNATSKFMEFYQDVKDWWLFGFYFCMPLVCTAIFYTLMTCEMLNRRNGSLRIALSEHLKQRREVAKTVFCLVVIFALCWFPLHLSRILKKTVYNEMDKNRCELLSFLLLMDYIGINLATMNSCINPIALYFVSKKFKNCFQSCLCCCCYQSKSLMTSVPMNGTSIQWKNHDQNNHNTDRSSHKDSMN

[6] = tested on: S1R (sigma-1 receptor); experiment: Selectivity index, ratio of IC50 for human SH-SY5Y cells to Ki for S1R in human Jurkat cell membranes; type: toxicity, cell-based
[7] = biological target: T3, Type-1 angiotensin II receptor (Homo sapiens) (UniProt P30556); experiment: Antagonist activity at recombinant human AT1 receptor assessed as inhibition of agonist-induced […] reporter based assay; type: functional
T3 sequence (whole entry): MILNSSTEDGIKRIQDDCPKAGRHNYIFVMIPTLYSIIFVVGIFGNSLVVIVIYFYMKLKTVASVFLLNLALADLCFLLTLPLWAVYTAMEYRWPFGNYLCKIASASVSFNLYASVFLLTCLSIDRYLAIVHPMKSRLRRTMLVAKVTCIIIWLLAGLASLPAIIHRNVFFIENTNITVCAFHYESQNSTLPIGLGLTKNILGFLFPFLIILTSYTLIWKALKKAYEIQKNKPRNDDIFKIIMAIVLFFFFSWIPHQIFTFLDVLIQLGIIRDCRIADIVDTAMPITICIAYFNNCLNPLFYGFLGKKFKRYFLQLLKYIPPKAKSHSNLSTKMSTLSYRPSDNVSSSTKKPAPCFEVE

[8] = biological target: 5-hydroxytryptamine receptor 6 (Homo sapiens) (UniProt P50406); experiment: Agonist activity at recombinant human 5-HT6R assessed as induction of cAMP levels at 10 uM by HTRF assay relative to agonist; type: functional
5-hydroxytryptamine receptor 6 (Homo sapiens), sequence (P50406 whole entry): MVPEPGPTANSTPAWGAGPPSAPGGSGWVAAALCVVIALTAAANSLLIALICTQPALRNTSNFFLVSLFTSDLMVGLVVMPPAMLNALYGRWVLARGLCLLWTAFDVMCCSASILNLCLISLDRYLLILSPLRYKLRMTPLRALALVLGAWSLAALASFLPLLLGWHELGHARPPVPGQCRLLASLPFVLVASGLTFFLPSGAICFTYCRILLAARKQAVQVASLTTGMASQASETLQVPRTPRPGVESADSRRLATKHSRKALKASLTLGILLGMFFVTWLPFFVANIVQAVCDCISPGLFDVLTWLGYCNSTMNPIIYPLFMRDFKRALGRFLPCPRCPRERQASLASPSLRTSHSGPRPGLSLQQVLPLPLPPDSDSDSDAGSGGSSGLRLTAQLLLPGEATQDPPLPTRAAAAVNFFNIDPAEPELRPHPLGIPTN

[9] = biological target: Cannabinoid receptor 1 (Homo sapiens) (UniProt P21554); experiment: Antagonist activity at recombinant human CB1 receptor assessed as inhibition of agonist-induced cAMP induction at 10 uM by HTRF assay; type: functional
Cannabinoid receptor 1 (Homo sapiens), sequence (P21554 whole entry): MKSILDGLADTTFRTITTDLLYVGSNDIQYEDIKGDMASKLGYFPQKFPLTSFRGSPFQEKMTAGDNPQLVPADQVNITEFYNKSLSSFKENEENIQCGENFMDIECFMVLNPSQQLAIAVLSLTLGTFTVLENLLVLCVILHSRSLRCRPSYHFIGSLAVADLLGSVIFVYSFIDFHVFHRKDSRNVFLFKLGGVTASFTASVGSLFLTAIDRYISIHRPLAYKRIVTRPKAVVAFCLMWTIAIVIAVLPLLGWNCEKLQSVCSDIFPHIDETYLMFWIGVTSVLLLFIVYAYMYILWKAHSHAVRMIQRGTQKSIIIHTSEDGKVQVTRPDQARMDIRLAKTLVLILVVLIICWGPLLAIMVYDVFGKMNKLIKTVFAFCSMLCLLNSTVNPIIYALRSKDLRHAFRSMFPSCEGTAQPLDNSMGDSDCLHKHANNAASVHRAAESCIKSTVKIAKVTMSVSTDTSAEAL

[10] = biological target: T4, 5-hydroxytryptamine receptor 3A (Homo sapiens) (UniProt P46098); experiment: Antagonist activity at recombinant human 5-HT3 assessed as inhibition of agonist-induced effect at 10 uM by aequorin reporter based assay
T4 sequence (whole entry): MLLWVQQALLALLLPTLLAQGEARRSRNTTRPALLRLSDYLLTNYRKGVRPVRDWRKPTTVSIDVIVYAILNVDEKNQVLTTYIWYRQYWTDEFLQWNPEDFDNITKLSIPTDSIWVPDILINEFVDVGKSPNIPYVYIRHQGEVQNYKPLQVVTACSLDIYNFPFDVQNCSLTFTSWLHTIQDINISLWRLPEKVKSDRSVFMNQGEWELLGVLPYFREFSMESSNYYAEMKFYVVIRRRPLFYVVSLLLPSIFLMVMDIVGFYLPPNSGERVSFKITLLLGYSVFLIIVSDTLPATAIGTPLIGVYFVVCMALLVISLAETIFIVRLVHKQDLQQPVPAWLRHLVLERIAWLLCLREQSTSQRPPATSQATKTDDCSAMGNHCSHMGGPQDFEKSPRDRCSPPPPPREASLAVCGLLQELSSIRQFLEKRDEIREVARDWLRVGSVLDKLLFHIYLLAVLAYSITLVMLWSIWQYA

[11] = biological target: Mu-type opioid receptor (Homo sapiens) (UniProt P35372); experiment: Antagonist activity at human mu-type opioid receptor assessed as inhibition of agonist-induced effect at 10 uM by GTPgamma[35S] binding-based assay; type: functional
Mu-type opioid receptor (Homo sapiens), sequence (P35372 whole entry): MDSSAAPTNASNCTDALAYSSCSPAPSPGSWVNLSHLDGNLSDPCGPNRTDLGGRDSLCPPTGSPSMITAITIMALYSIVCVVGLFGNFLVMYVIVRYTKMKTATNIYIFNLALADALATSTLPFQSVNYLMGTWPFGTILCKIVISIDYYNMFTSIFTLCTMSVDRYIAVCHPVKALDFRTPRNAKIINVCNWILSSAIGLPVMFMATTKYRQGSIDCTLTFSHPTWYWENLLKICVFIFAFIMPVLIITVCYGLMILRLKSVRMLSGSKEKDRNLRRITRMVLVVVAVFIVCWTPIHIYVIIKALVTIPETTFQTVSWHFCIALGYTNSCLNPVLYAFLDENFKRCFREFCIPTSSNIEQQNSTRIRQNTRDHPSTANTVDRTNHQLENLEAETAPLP

[12] = biological target: Delta-type opioid receptor (Homo sapiens) (UniProt P41143); experiment: Agonist activity at recombinant human delta-type opioid receptor at 10 uM by GTPgamma[35S] binding-based assay relative to agonist; type: functional
[13] = biological target: T5, Adenosine receptor A3 (Homo sapiens) (UniProt P0DMS8); experiment: Agonist activity at recombinant human adenosine A3 receptor […] at 10 uM by HTRF assay relative to agonist; type: functional
T5 sequence (whole entry): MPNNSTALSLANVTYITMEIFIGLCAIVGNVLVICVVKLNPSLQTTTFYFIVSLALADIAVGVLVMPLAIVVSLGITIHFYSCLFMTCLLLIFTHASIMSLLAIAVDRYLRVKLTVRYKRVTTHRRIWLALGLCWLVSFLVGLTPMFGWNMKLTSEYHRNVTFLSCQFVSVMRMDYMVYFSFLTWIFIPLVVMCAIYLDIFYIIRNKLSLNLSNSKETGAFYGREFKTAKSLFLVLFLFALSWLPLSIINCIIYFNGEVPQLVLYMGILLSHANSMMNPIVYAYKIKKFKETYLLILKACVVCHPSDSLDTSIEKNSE

[14] = biological target: T2, Endothelin-1 receptor (Homo sapiens); experiment: Antagonist activity at recombinant human ETA receptor assessed as inhibition of agonist induced effect at 10 uM by aequorin reporter based assay; type: functional

inhibition [1] [%] | inhibition [2] [%] | Activity [3] [%] | inhibition [4] [%] | Activity [5] [%] | inhibition [7] [%] | Activity [8] [%] | inhibition [9] [%] | inhibition [10] [%] | inhibition [11] [%] | Activity [12] [%] | Activity [13] [%] | inhibition [14] [%] | Structure (SMILES) | selectivity ratio [6]
16 | -1 | 18 | 6 | -1 | 11 | 16 | 1 | 62 | 9 | 0 | -6 |  | CN(CCCNC(=O)c1ccc(Cl)cc1)CCc1ccccc1 | > 23300
14 |  | 2 |  | -1 | -2 | 28 | 10 | 75 | -1 | 3 | 7 | 2 | CN(CCCNC(=O)c1ccc(C(F)(F)F)cc1)Cc1ccccc1 | 
8 | -4 | 4 | 9 | 0 | -3 | 14 | 5 | 42 | 8 | 0 | -4 | -5 | CN(CCCNC(=O)c1ccc(Cl)cc1)Cc1ccccc1 | > 31200
4 | -1 | 7 | 18 | -1 | 21 | 27 | 4 | 51 |  | 1 | -2 | -9 | CN(CCNC(=O)c1ccc(Cl)cc1)Cc1ccccc1 | > 27800
3 | -1 | -3 | 8 | -1 |  | -4 |  | 30 | 15 | 0 | -1 |  | CN(CCNC(=O)c1ccc([N+](=O)[O-])cc1)Cc1ccccc1 | > 27800
15 | -7 | 6 | -5 | -1 | -6 | 35 | 4 | 90 | -4 | 1 | 3 |  | CCCc1ccc(C(=O)NCCCN(C)Cc2ccccc2)cc1 | 
0 | 3 | -10 |  | 0 | 20 | -2 | -5 | 28 | 20 | -4 | -3 | 5 | COc1cccc(C(=O)NCCCN(C)Cc2ccccc2)c1 | 
12 | 6 | 3 | 5 | -1 | 17 | 34 | 5 | 23 | -6 | -1 | -1 | 0 | CN(CCCNC(=O)c1ccc([N+](=O)[O-])cc1)Cc1ccccc1 | 
5 | -5 | 10 | 7 | -1 | 7 | 32 | 3 | 83 | 29 | -1 | -3 | -9 | CN(CCCNC(=O)c1cccc(Br)c1)Cc1ccccc1 | > 25600
 | 1 | -12 | -2 | 0 | -10 | -4 | -8 | 19 | 20 | -6 | -5 | -1 | COc1ccc(C(=O)NCCCN(C)Cc2ccccc2)cc1 | 
1 | -2 | -5 | 0 | -1 |  | -9 |  | 75 | 9 | -2 | 0 | 6 | CN(CCNC(=O)c1ccc(C#N)cc1)Cc1ccccc1 | > 83300
5 | -3 | 2 | -5 | 1 |  | 4 | -2 | 79 | -9 | 1 | -6 |  | CN(CCCNC(=O)c1ccc(Br)cc1)Cc1ccccc1 | 
